Laboratory results from US11739100B2, “2,3-dihydro-1h-imidazo{1,2-a}pyrimidin-5-one and this 1,2,3,4-tetrahydropyrimido{1,2-a}pyrimidin-6-one derivatives comprising a substituted morpholine, preparation thereof and pharmaceutical use thereof” (SANOFI, priority 2012, dated 2023).

Biological target: T1, recombinant Vps34 (Homo sapiens, UniProt Q8NEB9)
T1 construct: purchased Invitrogen PV5126
Assay: Phosphorylation of phosphatidylinositol (PI) by Vps34 in vitro, ADP detected by TR-FRET (HTRF Transcreener ADP)
Format: biochemical
Conditions: 10 μM ATP, 55 μg/ml PI, approximately 3 nM Vps34, 1 hour at ambient temperature; absolute IC50, mean of two independent experiments; read-out: IC50 activity range

T1 sequence (Q8NEB9 whole entry): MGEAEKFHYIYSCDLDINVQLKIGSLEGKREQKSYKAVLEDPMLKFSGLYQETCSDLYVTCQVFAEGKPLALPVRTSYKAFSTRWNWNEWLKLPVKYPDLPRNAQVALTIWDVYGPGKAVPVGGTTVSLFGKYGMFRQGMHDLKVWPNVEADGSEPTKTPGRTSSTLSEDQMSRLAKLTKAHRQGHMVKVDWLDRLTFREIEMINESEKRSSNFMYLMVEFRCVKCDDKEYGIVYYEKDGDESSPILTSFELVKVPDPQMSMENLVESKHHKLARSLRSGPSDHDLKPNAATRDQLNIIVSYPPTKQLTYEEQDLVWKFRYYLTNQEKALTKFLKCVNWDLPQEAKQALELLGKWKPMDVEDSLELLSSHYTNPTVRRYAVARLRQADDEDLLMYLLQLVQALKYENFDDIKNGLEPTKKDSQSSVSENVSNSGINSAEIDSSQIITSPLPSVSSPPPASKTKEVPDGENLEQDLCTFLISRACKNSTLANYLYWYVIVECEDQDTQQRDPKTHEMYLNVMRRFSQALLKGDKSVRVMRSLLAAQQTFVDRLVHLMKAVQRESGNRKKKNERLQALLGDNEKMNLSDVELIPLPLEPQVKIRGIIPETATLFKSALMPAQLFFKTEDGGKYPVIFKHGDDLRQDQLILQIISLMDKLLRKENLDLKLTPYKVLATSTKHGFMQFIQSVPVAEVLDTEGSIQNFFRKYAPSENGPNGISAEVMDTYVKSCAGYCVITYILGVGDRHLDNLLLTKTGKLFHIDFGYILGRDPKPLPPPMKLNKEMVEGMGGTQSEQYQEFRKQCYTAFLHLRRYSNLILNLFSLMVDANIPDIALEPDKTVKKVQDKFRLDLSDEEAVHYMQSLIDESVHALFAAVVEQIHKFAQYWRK

Compound	IC50 [nM]
C[C@@H]1COCCN1c1nc2n(c(=O)c1F)CC[C@@H](C(F)(F)F)N2CC(=O)N1CC2(COC2)C1 [Example 293, (S)-3-Fluoro-2-((R)-3-methylmorpholin-4-yl)-9-[2-(2-oxa-6-aza-spiro[3.3]hept-6-yl)-2-oxoethyl]-8-trifluoromethyl-6,7,8,9-tetrahydro-pyrimido[1,2-a]-pyrimidin-4-one]	< 10
C[C@@H]1COCCN1c1cc(=O)n2c(n1)N(CC(=O)c1ccccc1)[C@H](C(F)(F)F)CC2 [Example 99, (S)-2-((R)-3-Methyl-morpholin-4-yl)-9-(2-oxo-2-phenylethyl)-8-trifluoromethyl-6,7,8,9-tetrahydro-pyrimido[1,2-a]-pyrimidin-4-one]	< 10
C[C@@H]1COCCN1c1cc(=O)n2c(n1)N(CC(=O)C1CC1)[C@H](C(F)(F)F)CC2 [Example 241, (S)-9-(2-Cyclopropyl-2-oxoethyl)-2-((R)-3-methylmorpholin-4-yl)-8-trifluoromethyl-6,7,8,9-tetrahydro-pyrimido[1,2-a]-pyrimidin-4-one]	< 10
CC(=O)CN1CC[C@H](C(F)(F)F)n2c1nc(N1CCOC[C@H]1C)cc2=O [Example 145, (R)-2-((R)-3-Methyl-morpholin-4-yl)-9-(2-oxopropyl)-6-trifluoromethyl-6,7,8,9-tetrahydro-pyrimido[1,2-a]-pyrimidin-4-one]	10 to 100
C[C@@H]1COCCN1c1nc2n(c(=O)c1F)CC[C@@H](C(F)(F)F)N2CC(=O)N1CCCO1 [Example 314, (S)-3-Fluoro-9-(2-isoxazolidin-2-yl-2-oxoethyl)-2-((R)-3-methylmorpholin-4-yl)-8-trifluoromethyl-6,7,8,9-tetrahydro-pyrimido[1,2-a]-pyrimidin-4-one]	< 10
C[C@@H]1COCCN1c1cc(=O)n2c(n1)N(c1cccnc1)[C@H](C(F)(F)F)CC2 [Example 301, (S)-2-((R)-3-Methyl-morpholin-4-yl)-9-pyridin-3-yl-8-trifluoromethyl-6,7,8,9-tetrahydro-pyrimido[1,2-a]-pyrimidin-4-one]	< 10
CC1COCC(C)N1c1cc(=O)n2c(n1)N(CC(=O)c1ccccc1)[C@H](C(F)(F)F)CC2 (stereo in doubt) [Example 153, (S)-2-((3S,5S)-3,5-Dimethylmorpholin-4-yl)-9-(2-oxo-2-phenyl-ethyl)-8-trifluoromethyl-6,7,8,9-tetrahydro-pyrimido[1,2-a]-pyrimidin-4-one]	< 10
C[C@@H]1COCCN1c1cc(=O)n2c(n1)N(CC(=O)C1CC1)CC[C@@H]2C(F)(F)F [Example 118, (R)-9-(2-Cyclopropyl-2-oxoethyl)-2-((R)-3-methylmorpholin-4-yl)-6-trifluoromethyl-6,7,8,9-tetrahydro-pyrimido[1,2-a]-pyrimidin-4-one]	< 10
CCC(=O)CN1c2nc(N3CCOC[C@H]3C)cc(=O)n2CC[C@H]1C(F)(F)F [Example 16, (S)-2-((R)-3-Methyl-morpholin-4-yl)-9-(2-oxobutyl)-8-trifluoromethyl-6,7,8,9-tetrahydro-pyrimido[1,2-a]-pyrimidin-4-one]	< 10
C[C@@H]1COCCN1c1cc(=O)n2c(n1)N(Cc1noc(C3CC3)n1)[C@H](C(F)(F)F)CC2 [Example 202, (S)-9-(5-Cyclopropyl-[1,2,4]oxadiazol-3-yl-methyl)-2-((R)-3-methylmorpholin-4-yl)-8-trifluoromethyl-6,7,8,9-tetrahydro-pyrimido[1,2-a]-pyrimidin-4-one]	< 10
Cc1nc(CN2c3nc(N4CCOC[C@H]4C)cc(=O)n3C[C@@]2(C)C(F)(F)F)no1 [Example 240, (S)-2-Methyl-7-((R)-3-methylmorpholin-4-yl)-1-(5-methyl-[1,2,4]oxadiazol-3-yl-methyl)-2-trifluoromethyl-2,3-dihydro-1H-imidazo[1,2-a]-pyrimidin-5-one]	< 10
C[C@@H]1COCCN1c1cc(=O)n2c(n1)N(CC(=O)c1cccnc1)[C@](C)(C(F)(F)F)C2 [Example 180, (S)-2-Methyl-7-((R)-3-methylmorpholin-4-yl)-1-(2-oxo-2-pyridin-3-ylethyl)-2-trifluoromethyl-2,3-dihydro-1H-imidazo[1,2-a]-pyrimidin-5-one]	< 10
C[C@@H]1COCCN1c1cc(=O)n2c(n1)N(Cc1ccon1)[C@](C)(C(F)(F)F)CC2 [Example 215, (S)-9-Isoxazol-3-yl-methyl-8-methyl-2-((R)-3-methyl-morpholin-4-yl)-8-trifluoromethyl-6,7,8,9-tetrahydro-pyrimido[1,2-a]-pyrimidin-4-one]	< 10

Continued, values first:

IC50 [nM]	Compound
< 10	CC(C)Oc1cc(CN2c3nc(N4CCOC[C@H]4C)cc(=O)n3CC[C@H]2C(F)(F)F)ccn1 [Example 225, (S)-9-(2-Isopropoxy-pyridin-4-ylmethyl)-2-((R)-3-methyl-morpholin-4-yl)-8-trifluoromethyl-6,7,8,9-tetrahydro-pyrimido[1,2-a]-pyrimidin-4-one]
< 10	C[C@@H]1COCCN1c1nc2n(c(=O)c1F)[C@@H](C(F)(F)F)CCN2CC(=O)c1cccnc1 [Example 126, (R)-3-Fluoro-2-((R)-3-methylmorpholin-4-yl)-9-(2-oxo-2-pyridin-3-ylethyl)-6-trifluoromethyl-6,7,8,9-tetrahydro-pyrimido[1,2-a]-pyrimidin-4-one]
10 to 100	C[C@@H]1COC[C@H](C)N1c1cc(=O)n2c(n1)N(Cc1ccc(Cl)s1)[C@H](C(F)(F)F)CC2 [Example 151, (S)-9-(5-Chloro-thiophen-2-ylmethyl)-2-((3S,5R)-3,5-dimethylmorpholin-4-yl)-8-trifluoromethyl-6,7,8,9-tetrahydro-pyrimido[1,2-a]-pyrimidin-4-one]
< 10	CC(C)C(F)CN1c2nc(N3CCOC[C@H]3C)cc(=O)n2CC[C@H]1C(F)(F)F (single isomer, unassigned) [Example 323]
< 10	C[C@@H]1COCCN1c1nc2n(c(=O)c1F)CC[C@@H](C(F)(F)F)N2CC(=O)N1CCCCC1 [Example 237, (S)-3-Fluoro-2-((R)-3-methylmorpholin-4-yl)-9-(2-oxo-2-piperidin-1-ylethyl)-8-trifluoromethyl-6,7,8,9-tetrahydro-pyrimido[1,2-a]-pyrimidin-4-one]
< 10	C[C@@H]1COCCN1c1nc2n(c(=O)c1F)CC[C@@H](C(F)(F)F)N2c1ccncc1 [Example 55, (S)-3-Fluoro-2-((R)-3-methylmorpholin-4-yl)-9-pyridin-4-yl-8-trifluoromethyl-6,7,8,9-tetrahydro-pyrimido[1,2-a]-pyrimidin-4-one]
< 10	CC(C)C(=O)CN1c2nc(N3CCOC[C@H]3C)c(F)c(=O)n2C[C@@]1(C)C(F)(F)F [Example 185, (S)-6-Fluoro-2-methyl-7-((R)-3-methyl-morpholin-4-yl)-1-(3-methyl-2-oxobutyl)-2-trifluoromethyl-2,3-dihydro-1H-imidazo[1,2-a]-pyrimidin-5-one]
< 10	C[C@@H]1COCCN1c1nc2n(c(=O)c1F)CC[C@@H](C(F)(F)F)N2Cc1noc(C(C)(C)C)n1 [Example 54, (S)-9-(5-tert-Butyl-[1,2,4]oxadiazol-3-yl-methyl)-3-fluoro-2-((R)-3-methyl-morpholin-4-yl)-8-trifluoromethyl-6,7,8,9-tetrahydro-pyrimido[1,2-a]-pyrimidin-4-one]
10 to 100	O=c1cc(N2CC3CCC(C2)O3)nc2n1CC[C@@H](C(F)(F)F)N2Cc1ccnn1C(F)F [Example 166, (S)-9-(2-Difluoromethyl-2H-pyrazol-3-ylmethyl)-2-(8-oxa-3-aza-bicyclo[3.2.1]oct-3-yl)-8-trifluoromethyl-6,7,8,9-tetrahydro-pyrimido[1,2-a]-pyrimidin-4-one]
< 10	C[C@@H]1COCCN1c1cc(=O)n2c(n1)N(Cc1cncs1)[C@H](C(F)(F)F)CC2 [Example 87, (S)-2-((R)-3-Methyl-morpholin-4-yl)-9-thiazol-5-ylmethyl-8-trifluoromethyl-6,7,8,9-tetrahydro-pyrimido[1,2-a]-pyrimidin-4-one]
< 10	Cc1cc(CN2c3nc(N4CCOC[C@H]4C)c(F)c(=O)n3CC[C@H]2C(F)(F)F)on1 [Example 299, (S)-3-Fluoro-9-(3-methylisoxazol-5-yl-methyl)-2-((R)-3-methylmorpholin-4-yl)-8-trifluoromethyl-6,7,8,9-tetrahydro-pyrimido[1,2-a]-pyrimidin-4-one]
< 10	CC(C)OC(=O)CN1c2nc(N3CCOC[C@H]3C)cc(=O)n2CC[C@H]1C(F)(F)F [Example 254, [(S)-8-((R)-3-Methyl-morpholin-4-yl)-6-oxo-2-trifluoromethyl-3,4-dihydro-2H,6H-pyrimido[1,2-a]-pyrimidin-1-yl]acetic acid isopropyl ester]
10 to 100	O=C(CN1c2nc(N3CC4CCC(C3)O4)c(F)c(=O)n2CC[C@H]1C(F)(F)F)C1CC1 [Example 273, (S)-9-(2-Cyclopropyl-2-oxoethyl)-3-fluoro-2-(8-oxa-3-aza-bicyclo[3.2.1]oct-3-yl)-8-trifluoromethyl-6,7,8,9-tetrahydro-pyrimido[1,2-a]-pyrimidin-4-one]
< 10	C[C@@H]1COCCN1c1nc2n(c(=O)c1F)C[C@@](C)(C(F)(F)F)N2CC(=O)C1CCOCC1 [Example 186, (S)-6-Fluoro-2-methyl-7-((R)-3-methyl-morpholin-4-yl)-1-[2-oxo-2-(tetrahydro-pyran-4-yl)ethyl]-2-trifluoromethyl-2,3-dihydro-1H-imidazo[1,2-a]-pyrimidin-5-one]
< 10	C[C@@H]1COCCN1c1cc(=O)n2c(n1)N(Cc1nc(C3CC3)no1)[C@H](C(F)(F)F)CC2 [Example 227, (S)-9-(3-Cyclopropyl-[1,2,4]oxadiazol-5-yl-methyl)-2-((R)-3-methylmorpholin-4-yl)-8-trifluoromethyl-6,7,8,9-tetrahydro-pyrimido[1,2-a]-pyrimidin-4-one]
> 100	C[C@@H]1COCCN1c1cc(=O)n2c(n1)N(Cc1cn3ccccc3n1)[C@H](C(F)(F)F)CC2 [Example 64, (S)-9-Imidazo[1,2-a]-pyridin-2-ylmethyl-2-((R)-3-methyl-morpholin-4-yl)-8-trifluoromethyl-6,7,8,9-tetrahydro-pyrimido[1,2-a]-pyrimidin-4-one]
